In patent US9751876B2, “Bicyclic heterocycle derivatives for the treatment of pulmonary arterial hypertension” (Novartis AG, priority 2011, dated 2017):
Structures can show the parent of a compound that is named as a salt.

System: PDGFR
Assay: Rat A10 cell proliferation assay
Assay type: cell-based
Conditions: Rat A10 cells, 1% FBS, 10 ng/mL recombinant rat PDGF-BB, 68 hours with compound, CellTiter-Glo luminescence
Experimental: Compounds of Formula (I), (II) or (III) provided herein were assayed to measure their capacity to inhibit PDGFR kinases using the appropriate assay described below: PDGFR inhibition was evaluated using the Rat A10 cell proliferation.
Rat A10 Cell Proliferation Assay
Rat A10 cells (ATCC) were resuspended in DMEM supplemented with 1% FBS and 10 ng/mL recombinant rat PDGF-BB at 20,000 cells/mL. The cells were aliquoted into 384 well plates at 50 μL/well and incubated for 4 hours at 37° C. […] The plates were returned to the incubator for a further 68 hours. 25 μL of CellTiter-Glo (Promega) was added to each well and the plates were incubated on the bench for 15 minutes. Luminescence was then read using a CLIPR CCD camera (Molecular Devices).
Data were analysed using non-linear regression fitted to sigmoidal (variable slope) curves using a four parameter logistic equation to generate IC50 values for each compound.

Work on `CN1CCN(c2ccccc2CNC(=O)c2ccc(F)c(NC(=O)c3cnc4cc(-c5ccc(C(=O)NCCO)c(F)c5)ccn34)c2)CC1` [Example 1.2, 7-(3-Fluoro-4-(2-hydroxyethylcarbamoyl)phenyl)-N-(2-fluoro-5-(2-(4-methylpiperazin-1-yl)benzylcarbamoyl)phenyl)imidazo[1,2-a]pyridine-3-carboxamide] yielded an IC50 of 40 nM.
In the case of `CN(C)CCCOc1ccc(-c2ccn3c(C(=O)Nc4cc(C(=O)NCc5ccc(F)c(F)c5)ccc4F)cnc3c2)cn1` [Example 1.9, N-(5-(3,4-difluorobenzylcarbamoyl)-2-fluorophenyl)-7-(6-(3-(dimethylamino)propoxy)pyridine-3-yl)imidazo[1,2-a]pyridine-3-carboxamide], the IC50 is reported as 11 nM.
`C[C@@H]1CCC[C@H](C)N1CCNC(=O)c1ccc(F)c(NC(=O)c2cnc3cc(-c4cccnc4)ccn23)c1` [Example 1.16, 1-(2-(4-fluoro-3-(7-(pyridine-3-yl)imidazo[1,2-a]pyridine-3-carboxamido)benzamido)ethyl)-2,6-cis-dimethylpiperidinium chloride] was tested, and the IC50 was 27 nM.
`Cc1ncc(C(=O)NCc2ccccc2N2CCN(C)CC2)cc1NC(=O)c1cnc2cc(-c3ccnn3C)ccn12` [Example 1.19, 1-methyl-4-(2-((6-methyl-5-(7-(1-methyl-1H-pyrazol-5-yl)imidazo[1,2-a]pyridine-3-carboxamido)nicotinamido)methyl)phenyl)piperazin-1-ium chloride] gave an IC50 of 74 nM.
In the case of `C[C@@H]1CCC[C@H](C)N1CCNC(=O)c1ccc(F)c(NC(=O)c2cnc3cc(-c4cnn(C)c4)ccn23)c1` [Example 1.20, 7-(1-Methyl-1H-pyrazol-4-yl)-imidazo[1,2-a]pyridine-3-carboxylic acid {5-[2-(2,6-cis-dimethyl-piperidin-1-yl)-ethylcarbamoyl]-2-fluoro-phenyl}-amide hydrochloride], the IC50 is reported as 13 nM.
In the case of `CN(C)CCCOc1ccc(-c2ccn3c(C(=O)Nc4cc(C(=O)NCCOC(C)(C)C)ccc4F)cnc3c2)cn1` [Example 2.1, N-(5-(2-tert-Butoxyethylcarbamoyl)-2-fluorophenyl)-7-(6-(3-(dimethylamino)propoxy)pyridin-3-yl)imidazo[1,2-a]pyridine-3-carboxamide], the IC50 is reported as 3 nM.
Compound `COCCN(C)Cc1cncc(-c2ccn3c(C(=O)Nc4cc(C(=O)NC[C@H]5CCC(C)(C)O5)ccc4F)cnc3c2)c1` [Example 2.6, (R)-N-(5-(((5,5-dimethyltetrahydrofuran-2-yl)methyl)carbamoyl)-2-fluorophenyl)-7-(5-(((2-methoxyethyl)(methyl)amino)methyl)pyridin-3-yl)imidazo[1,2-a]pyridine-3-carboxamide] has an IC50 of 16 nM.
Work on `O=C(NCc1ccc(F)c(F)c1)c1ccc(F)c(NC(=O)c2cnc3cc(-c4ccc(OCCN5CCCC5)nc4)ccn23)c1` [Example 3.1, N-(5-(3,4-Difluorobenzylcarbamoyl)-2-fluorophenyl)-7-(6-(2-(pyrrolidin-1-yl)ethoxy)pyridin-3-yl)imidazo[1,2-a]pyridine-3-carboxamide hydrochloride] yielded an IC50 of 13 nM.
`CC(C)(C)OCCNC(=O)c1ccc(F)c(NC(=O)c2cnc3cc(-c4ccc(OCCN5CCCC5)nc4)ccn23)c1` [Example 3.2, N-(5-((2-(tert-Butoxy)ethyl)carbamoyl)-2-fluorophenyl)-7-(6-(2-(pyrrolidin-1-yl)ethoxy)pyridin-3-yl)imidazo[1,2-a]pyridine-3-carboxamide] was tested, and the IC50 was 15 nM.
With `CN1CCC(Oc2ccc(-c3ccn4c(C(=O)Nc5cc(C(=O)NCC6CCC(C)(C)O6)ccc5F)cnc4c3)cn2)CC1` (stereo not drawn) [Example 3.3, N-(5-(((5,5-dimethyltetrahydrofuran-2-yl)methyl)carbamoyl)-2-fluorophenyl)-7-(6-((1-methylpiperidin-4-yl)oxy)pyridin-3-yl)imidazo[1,2-a]pyridine-3-carboxamide] the IC50 was 10 nM.
For `Cc1ccc(C(=O)NCc2ccccc2N2CCN(C)CC2)cc1NC(=O)c1cnn2cc(-c3ccnn3C)ccc12` [Example 4.1, 6-(1-Methyl-1H-pyrazol-5-yl)-N-(2-methyl-5-(2-(4-methylpiperazin-1-yl)benzylcarbamoyl)phenyl)pyrazolo[1,5-a]pyridine-3-carboxamide hydrochloride], the IC50 was 12 nM.
With `CC(C)(O)CCc1ccn2c(C(=O)Nc3cc(C(=O)NCc4ccc(F)c(F)c4)ccc3F)cnc2c1` [Example 6.1, N-(5-(3,4-Difluorobenzylcarbamoyl)-2-fluorophenyl)-7-(3-hydroxy-3-methylbutyl)imidazo[1,2-a]pyridine-3-carboxamide] the IC50 was 41 nM.
`CC(C)(CO)NC(=O)c1ccc(-c2ccn3c(C(=O)Nc4cc(C(=O)NCCN5CCCC5(C)C)ccc4F)cnc3c2)cc1F` [Example 7.5, N-(5-(2-(2,2-Dimethylpyrrolidin-1-yl)ethylcarbamoyl)-2-fluorophenyl)-7-(3-fluoro-4-(1-hydroxy-2-methylpropan-2-ylcarbamoyl)phenyl)imidazo[1,2-a]pyridine-3-carboxamide] gave an IC50 of 8 nM.
For `Cc1ncc(C(=O)NCCN2CCCC2(C)C)cc1NC(=O)c1cnn2cc(-c3ccc(C(=O)NC(C)(C)CO)c(F)c3)ccc12` [Example 7.6, N-(5-(2-(2,2-Dimethylpyrrolidin-1-yl)ethylcarbamoyl)-2-methylpyridin-3-yl)-6-(3-fluoro-4-(1-hydroxy-2-methylpropan-2-ylcarbamoyl)phenyl)pyrazolo[1,5-a]pyridine-3-carboxamide], the IC50 was 182 nM.
For `O=C(NCc1ccc(F)c(F)c1)c1ccc(F)c(NC(=O)c2cnc3cc(-c4ccc(C(=O)NCCCN5CCOCC5)c(F)c4)ccn23)c1` [Example 8.1, N-(5-(3,4-Difluorobenzylcarbamoyl)-2-fluorophenyl)-7-(3-fluoro-4-(3-morpholinopropylcarbamoyl)phenyl)imidazo[1,2-a]pyridine-3-carboxamide hydrochloride], the IC50 was 4 nM.
Work on `C[C@@H]1CCC[C@H](C)N1CCNC(=O)c1ccc(F)c(NC(=O)c2cnc3cc(-c4ccc(C(=O)NC(C)(C)CO)c(F)c4)ccn23)c1` [Example 8.2, N-(5-(2-(2,6-cis-Dimethylpiperidin-1-yl)ethylcarbamoyl)-2-fluorophenyl)-7-(3-fluoro-4-(1-hydroxy-2-methylpropan-2-ylcarbamoyl)phenyl)imidazo[1,2-a]pyridine-3-carboxamide] yielded an IC50 of 8 nM.
`CN1CCN(c2ccccc2CNC(=O)c2ccc(F)c(NC(=O)c3cnc4cc(-c5cc(F)cc(C(=O)NCCO)c5)ccn34)c2)CC1` [Example 8.4, N-(2-Fluoro-5-(2-(4-methylpiperazin-1-yl)benzylcarbamoyl)phenyl)-7-(3-fluoro-5-(2-hydroxyethylcarbamoyl)phenyl)imidazo[1,2-a]pyridine-3-carboxamide] gave an IC50 of 112 nM.
`CCCC1CCN(CCNC(=O)c2ccc(F)c(NC(=O)c3cnc4cc(-c5cnn(C)c5)ccn34)c2)C1` (stereo not drawn) [Example 9.2, N-(2-Fluoro-5-((2-(3-propylpyrrolidin-1-yl)ethyl)carbamoyl)phenyl)-7-(1-methyl-1H-pyrazol-4-yl)imidazo[1,2-a]pyridine-3-carboxamide] gave an IC50 of 11 nM.
`CC1CC(C)CN(CCNC(=O)c2ccc(F)c(NC(=O)c3cnc4cc(-c5cnn(C)c5)ccn34)c2)C1` (stereo not drawn) [Example 9.4, N-(5-((2-(3,5-Dimethylpiperidin-1-yl)ethyl)carbamoyl)-2-fluorophenyl)-7-(1-methyl-1H-pyrazol-4-yl)imidazo[1,2-a]pyridine-3-carboxamide] was tested, and the IC50 was 128 nM.
`Cc1ncc(C(=O)NCCN2CCCCC2(C)C)cc1NC(=O)c1cnn2cc(-c3cnn(C)c3)ccc12` [Example 9.13, N-(5-((2-(2,2-Dimethylpiperidin-1-yl)ethyl)carbamoyl)-2-methylpyridin-3-yl)-6-(1-methyl-1H-pyrazol-4-yl)pyrazolo[1,5-a]pyridine-3-carboxamide] was tested, and the IC50 was 7 nM.
`CC[C@@H]1CN(CCNC(=O)c2ccc(F)c(NC(=O)c3cnc4cc(-c5cnn(C)c5)ccn34)c2)[C@H]1CC` [Example 9.15, N-(5-((2-((2S,3R)-2,3-diethylazetidin-1-yl)ethyl)carbamoyl)-2-fluorophenyl)-7-(1-methyl-1H-pyrazol-4-yl)imidazo[1,2-a]pyridine-3-carboxamide] was tested, and the IC50 was 2 nM.
